Tests used:
Type in all cases: cell-based
MIA-PaCa-2 = test: Extended test against tumor cell lines (ATPlite); conditions: MIA-PaCa-2 (pancreatic cancer), 72 hours
Method: (§1) The compounds of Examples 36/37/40/47/49 were used to carry out extended test against tumor cell lines, wherein 12 kinds of cells were selected, including liver cancer cells, gastric cancer cells, pancreatic cancer cells, colorectal cancer cells, lung cancer cells and normal cells, which were shown in Table 12:
(§2) A 100 mm culture dish with overgrown adherent cells was digested with 1 ml 0.25% trypsin (GIBCO) at 37° C. for 5 min, and the reaction was terminated with 2 ml culture medium (containing 10% FBS, GIBCO). The cells were scattered and collected, after counting, diluted to 1×10^5 cells/ml, and seeded into a 96-well plate at 50 μl/well, 5000 cells/well, excluding the peripheral circle of wells in which no cell was added, but PBS was added, 54 wells in total, and then incubated at 37° C. for 24 hours for adhering.
(§3) The test sample was diluted to final concentration of 4, 1, 0.25, 0.063, 0.016 μM, culture medium was filled in control well, 3 parellel wells were set for each concentration, 50 μl each well, followed by incubation at 37° C. for 72 hours.
(§4) 3) Test after incubation at 37° C. for 72 hours: 50 μL of ATPlite kitsubstrate solution was added in each well, and vibrated for 3 min, followed by placing aside in darkness for 10 min, and then supernatant 100 μl/well was taken and placed on a luminescence test plate; the luminescence test plate that has been fully incubated was placed in a luminescence test instrument, to read luminescence value.
(§5) Cell survival rate (%)=Experimental group RLU/control group RLU×100%. The experimental data were subjected to data analysis and processing by utilizing GraphPad software.

HepG2 = test: Extended test against tumor cell lines (ATPlite); conditions: HepG2 (liver cancer), 72 hours
Method: as §1, §2, §3, §4, §5

COLO205 = test: Extended test against tumor cell lines (ATPlite); conditions: COLO205 (colorectal cancer), 72 hours
Method: as §1, §2, §3, §4, §5

[1] = test system: WI-38 (human embryonic lung fibroblast); test: Extended test against tumor cell lines (ATPlite); conditions: WI-38 (normal cells), 72 hours
Method: as §1, §2, §3, §4, §5

[2] = test system: MRC5 (lung epithelial fibroblast); test: Extended test against tumor cell lines (ATPlite); conditions: MRC5 (normal cells), 72 hours
Method: as §1, §2, §3, §4, §5

Huh-7 = test: Extended test against tumor cell lines (ATPlite); conditions: Huh-7 (liver cancer), 72 hours
Method: as §1, §2, §3, §4, §5

H460 = test: Extended test against tumor cell lines (ATPlite); conditions: H460 (lung cancer), 72 hours
Method: as §1, §2, §3, §4, §5

N87 = test: Extended test against tumor cell lines (ATPlite); conditions: N87 (gastric cancer), 72 hours
Method: as §1, §2, §3, §4, §5

HT-29 = test: Extended test against tumor cell lines (ATPlite); conditions: HT-29 (colorectal cancer), 72 hours
Method: as §1, §2, §3, §4, §5

BGC823 = test: Extended test against tumor cell lines (ATPlite); conditions: BGC823 (gastric cancer), 72 hours
Method: as §1, §2, §3, §4, §5

[3] = test system: six human breast cancer cell strains; test: Antitumor activity evaluation, statements on the whole panel; conditions: compound alone
Source text: In antitumor activity evaluation, six human breast cancer cell strains are selected, including BT474, SK-BR3 which are human breast cancer cell strains sensitive to lapatinib, BT/Lap^R1.0, SK/Lap^R1.0 which are human breast cancer cell strains with secondary resistance to lapatinib, MDA-MB-361, MDA-MB-453 which are human breast cancer cell strains with natural resistance tolapatinib.
Antitumor bioactivity evaluation of the compounds of Examples according to the method described below
as §2, with “Cells plating: a” for “A”, “60” for “54”
Addition of the compound and lapatinib: the test sample was diluted to a final concentration of 5 μM, and the culture medium with the corresponding compound solvent concentration was filled in the control well, the compound solvent concentration was kept consistent in each well, 5 parellel wells were set for each concentration, 25 μl each well, 25 μl culture medium (in combined group, 25 μl lapatinib was added till a final concentration of 1 μM) supplemented, followed by incubation at 37° C. for 72 hours.
as §4, with “Test” for “3) Test”, “ATPlite kit substrate” for “ATPlite kitsubstrate”, “on aluminescence” for “on a luminescence”
1. Cell survival rate (%)=Experimental group RLU/control group RLU×100%. The experimental data were subjected to data analysis and processing by utilizing GraphPad software.

[4] = test system: tumor cells and normal cells (12 kinds of cells); test: Extended test against tumor cell lines, statements on the whole panel; conditions: 12 kinds of cells, 0.016-4 μM, 72 hours
Method: as §1, §2, §3, §4, §5

`CSc1nccc(N2CCC(N(C)Cc3c(F)cccc3Cl)CC2)n1` [Example 37, N-methyl-N-(2-fluoro-6-chlorobenzyl)-N-[1-(2-methylthiopyrimidin-4-yl)piperidin-4-yl]amine] showed a Survival rate (MIA-PaCa-2; 0.016 μM) of 97.6%, a Survival rate (MIA-PaCa-2; 0.063 μM) of 97.5% and a Survival rate (MIA-PaCa-2; 0.25 μM) of 91.5%. It also gave a Survival rate (MIA-PaCa-2; 1 μM) of 61.9%, a Survival rate (MIA-PaCa-2; 4 μM) of 16% and a Survival rate (HepG2; 0.016 μM) of 97.1%. The Survival rate (HepG2; 0.063 μM) was 92.3%, the Survival rate (HepG2; 0.25 μM) was 78.1% and the Survival rate (HepG2; 1 μM) was 45.7%. For the same compound, the Survival rate (HepG2; 4 μM) was 5.6%, the Survival rate (COLO205; 0.016 μM) was 100.1% and the Survival rate (COLO205; 0.063 μM) was 97.5%. For the same compound, the Survival rate (COLO205; 0.25 μM) was 100.4%, the Survival rate (COLO205; 1 μM) was 94.5% and the Survival rate (COLO205; 4 μM) was 12.9%. The Survival rate ([1]; 0.016 μM) was 98.6%, the Survival rate ([1]; 0.063 μM) was 99.2% and the Survival rate ([1]; 0.25 μM) was 95.5%. It also gave a Survival rate ([1]; 1 μM) of 89.7%, a Survival rate ([1]; 4 μM) of 65.6% and a Survival rate ([2]; 0.016 μM) of 97.3%. The Survival rate ([2]; 0.063 μM) was 99.5%, the Survival rate ([2]; 0.25 μM) was 93.5% and the Survival rate ([2]; 1 μM) was 90.4%. For the same compound, the Survival rate ([2]; 4 μM) was 65.3%, the Survival rate (Huh-7; 0.016 μM) was 91.9% and the Survival rate (Huh-7; 0.063 μM) was 86.7%. The Survival rate (Huh-7; 0.25 μM) was 82.3%, the Survival rate (Huh-7; 1 μM) was 46.7% and the Survival rate (Huh-7; 4 μM) was 14.9%. It also gave a Survival rate (H460; 0.016 μM) of 97.7%, a Survival rate (H460; 0.063 μM) of 97.9% and a Survival rate (H460; 0.25 μM) of 92.3%. For the same compound, the Survival rate (H460; 1 μM) was 63.1%, the Survival rate (H460; 4 μM) was 22% and the Survival rate (N87; 0.016 μM) was 98.9%. It also gave a Survival rate (N87; 0.063 μM) of 95.6%, a Survival rate (N87; 0.25 μM) of 89.7% and a Survival rate (N87; 1 μM) of 66.8%. For the same compound, the Survival rate (N87; 4 μM) was 37.1%, the Survival rate (HT-29; 0.016 μM) was 99.3% and the Survival rate (HT-29; 0.063 μM) was 97.4%. For the same compound, the Survival rate (HT-29; 0.25 μM) was 94.4%, the Survival rate (HT-29; 1 μM) was 82.1% and the Survival rate (HT-29; 4 μM) was 33.8%. It also gave a Survival rate (BGC823; 0.016 μM) of 97.6%, a Survival rate (BGC823; 0.063 μM) of 97.2% and a Survival rate (BGC823; 0.25 μM) of 90.2%. For the same compound, the Survival rate (BGC823; 1 μM) was 59.7%, the Survival rate (BGC823; 4 μM) was 21% and the “growth inhibition to the six human breast cancer cell strains” value [3] was “relatively significant growth inhibition”. The “inhibition of tumor cells versus cytotoxicity to normal cells” value [4] was “slightly stronger inhibition to liver cancer than that to other tumor cells, and exhibited cytotoxicity to normal cells lower than inhibition to tumor cells”.
`CSc1nccc(N2CCC(N(C)Cc3ccc(Cl)cc3Cl)CC2)n1` [Example 40, N-methyl-N-(2,4-dichlorobenzyl)-N-[1-(2-methylthiopyrimidin-4-yl)piperidin-4-yl]amine] was tested, and the Survival rate (MIA-PaCa-2; 0.016 μM) was 94.6%, the Survival rate (MIA-PaCa-2; 0.063 μM) was 94.8% and the Survival rate (MIA-PaCa-2; 0.25 μM) was 90.2%. For the same compound, the Survival rate (MIA-PaCa-2; 1 μM) was 77.3%, the Survival rate (MIA-PaCa-2; 4 μM) was 20.6% and the Survival rate (HepG2; 0.016 μM) was 94.7%. The Survival rate (HepG2; 0.063 μM) was 94.8%, the Survival rate (HepG2; 0.25 μM) was 86.4% and the Survival rate (HepG2; 1 μM) was 55.3%. The Survival rate (HepG2; 4 μM) was 4.5%, the Survival rate (COLO205; 0.016 μM) was 96.2% and the Survival rate (COLO205; 0.063 μM) was 98.2%. It also gave a Survival rate (COLO205; 0.25 μM) of 98.6%, a Survival rate (COLO205; 1 μM) of 91.9% and a Survival rate (COLO205; 4 μM) of 30.3%. The Survival rate ([1]; 0.016 μM) was 99.3%, the Survival rate ([1]; 0.063 μM) was 97.3% and the Survival rate ([1]; 0.25 μM) was 95.8%. It also gave a Survival rate ([1]; 1 μM) of 92.3%, a Survival rate ([1]; 4 μM) of 64.2% and a Survival rate ([2]; 0.016 μM) of 93.6%. It also gave a Survival rate ([2]; 0.063 μM) of 88.9%, a Survival rate ([2]; 0.25 μM) of 91.9% and a Survival rate ([2]; 1 μM) of 86.5%. It also gave a Survival rate ([2]; 4 μM) of 67.6%, a Survival rate (Huh-7; 0.016 μM) of 93.8% and a Survival rate (Huh-7; 0.063 μM) of 90.7%. The Survival rate (Huh-7; 0.25 μM) was 87.3%, the Survival rate (Huh-7; 1 μM) was 65.2% and the Survival rate (Huh-7; 4 μM) was 14.3%. The Survival rate (H460; 0.016 μM) was 98.7%, the Survival rate (H460; 0.063 μM) was 98.7% and the Survival rate (H460; 0.25 μM) was 93.7%. The Survival rate (H460; 1 μM) was 75.9%, the Survival rate (H460; 4 μM) was 26.3% and the Survival rate (N87; 0.016 μM) was 97.9%. For the same compound, the Survival rate (N87; 0.063 μM) was 92.7%, the Survival rate (N87; 0.25 μM) was 89.7% and the Survival rate (N87; 1 μM) was 71.5%. The Survival rate (N87; 4 μM) was 36.3%, the Survival rate (HT-29; 0.016 μM) was 100.6% and the Survival rate (HT-29; 0.063 μM) was 105.4%. It also gave a Survival rate (HT-29; 0.25 μM) of 102%, a Survival rate (HT-29; 1 μM) of 89.2% and a Survival rate (HT-29; 4 μM) of 41.2%. It also gave a Survival rate (BGC823; 0.016 μM) of 98.3%, a Survival rate (BGC823; 0.063 μM) of 103.1% and a Survival rate (BGC823; 0.25 μM) of 91.3%. For the same compound, the Survival rate (BGC823; 1 μM) was 73.7%, the Survival rate (BGC823; 4 μM) was 21.1% and the “growth inhibition to the six human breast cancer cell strains” value [3] was “relatively significant growth inhibition”. For the same compound, the “inhibition of tumor cells versus cytotoxicity to normal cells” value [4] was “slightly stronger inhibition to liver cancer than that to other tumor cells, and exhibited cytotoxicity to normal cells lower than inhibition to tumor cells”.
